Laboratory results taken from patent publication US10544130B2, “Metallo-beta-lactamase inhibitors” (priority 2015, dated 2020).

Tested on: Pseudomonas aeruginosa PAO1 MB9798 (efflux+, IMP-1)
Settings: ratio MITC95 PA 9798/MITC95 PA 9799; imipenem at 2 μg/mL
Excerpt: The strain background was Pseudomonas aeruginosa PAO1.
The strain set was then used as a pair to determine the effect of metallo-β-lactamase inhibitors of Formula I on the MIC of imipenem and/or ceftazidime. A fixed concentration of antibiotic was included in standard microbroth MIC tests, usually at the CLSI (Clinical and Laboratory Standards Institute) breakpoint concentration. A fixed amount of a class A/C beta-lactamase inhibitor was also included to inhibit the resident Pseudomonas AmpC enzyme. A serial titration of the metallo-β-lactamase inhibitor was included and the concentration of metallo-β-lactamase inhibitor which restores susceptibility of the strain to the included antibiotic was recorded. That concentration of metallo-β-lactamase inhibitor was then compared between the two strains to determine the fold difference between the efflux + (MB9798) and efflux − (MB9799) strains. This was taken as an indication of the extent to which the MBLi is subject to efflux.

Question: CCC1(NS(=O)(=O)c2ccc(-c3cccc4sc(N)nc34)c(-c3nnn[nH]3)c2S(N)(=O)=O)CCNC1 (stereo not shown) [Example 56, 4-(2-amino-1,3-benzothiazol-4-yl)-N1-(3-ethylpyrrolidin-3-yl)-3-(1H-tetrazol-5-yl)benzene-1,2-disulfonamide] was tested. Which Efflux ratio did it give?
Answer: 1.00

Question: For Nc1nc2c(-c3ccc(S(=O)(=O)NCCN4CCNC(=O)C4)c(S(N)(=O)=O)c3-c3nnn[nH]3)cccc2s1 [Example 15, 4-(2-amino-1,3-benzothiazol-4-yl)-N1-[2-(3-oxopiperazin-1-yl)ethyl]-3-(1H-tetrazol-5-yl)benzene-1,2-disulfonamide], which Efflux ratio is on record?
Answer: 1.00

Question: Which Efflux ratio does the source give for Nc1nc2c(-c3ccc(S(=O)(=O)NCCO)c(S(N)(=O)=O)c3-c3nn[nH]n3)cccc2s1 [Example 144, 4-(2-aminobenzo[d]thiazol-4-yl)-N1-(2-hydroxyethyl)-3-(2H-tetrazol-5-yl)benzene-1,2-disulfonamide] here?
Answer: 1.00

Question: How did the Efflux ratio turn out when NCCNS(=O)(=O)c1ccc(-c2cccc3oc(C(=O)O)nc23)c(-c2nn[nH]n2)c1S(N)(=O)=O [Example 13, 4-(4-(N-(2-aminoethyl)sulfamoyl)-3-sulfamoyl-2-(2H-tetrazol-5-yl)phenyl)benzo oxazole-2-carboxylic acid] was run?
Answer: 2.00

Question: How did the Efflux ratio turn out when Nc1ccc(-c2ccc(S(=O)(=O)NC[C@]3(N)CCNC3)c(S(N)(=O)=O)c2-c2nn[nH]n2)cn1 [Example 368, (S)-4-(6-aminopyridin-3-yl)-N1-((3-aminopyrrolidin-3-yl)methyl)-3-(2H-tetrazol-5-yl)benzene-1,2-disulfonamide] was run?
Answer: 1.00

Question: How did the Efflux ratio turn out when Cn1c(N)nc2c(-c3ccc(S(=O)(=O)N[C@H]4CC[N+](C)(C)C4)c(S(N)(=O)=O)c3-c3nn[n-]n3)cccc21 [Example 167, (S)-5-(6-(2-amino-1-methyl-1H-benzo[d]imidazol-4-yl)-3-(N-(1,1-dimethylpyrrolidin-1-ium-3-yl)sulfamoyl)-2-sulfamoylphenyl)tetrazol-2-ide] was run?
Answer: 2.00

Question: With Nc1nc2c(-c3ccc(S(=O)(=O)N[C@@H](N)c4ccccn4)c(S(N)(=O)=O)c3-c3nnn[nH]3)cccc2s1.O=C(O)C(F)(F)F [Example 99, (R)-(4-(2-aminobenzo[d]thiazol-4-yl)-2-sulfamoyl-3-(1H-tetrazol-5-yl)phenylsulfonamido) (pyridin-2-yl)methanaminium 2,2,2-trifluoroacetate] as the compound, how does the Efflux ratio read?
Answer: 8.00

Question: With NCCNS(=O)(=O)c1ccc(-c2cc(F)cc3[nH]c(N)nc23)c(-c2nnn[nH]2)c1S(N)(=O)=O [Example 180, 4-(2-amino-6-fluoro-1H-benzo[d]imidazol-4-yl)-N^1-(2-aminoethyl)-3-(1H-tetrazol-5-yl)benzene-1,2-disulfonamide] as the compound, how does the Efflux ratio read?
Answer: 0.50

Question: For Nc1nc2c(-c3ccc(S(=O)(=O)NC[C@@H](N)C(=O)O)c(S(N)(=O)=O)c3-c3nn[nH]n3)cccc2s1 [Example 154, (R)-2-amino-3-((4-(2-aminobenzo[d]thiazol-4-yl)-2-sulfamoyl-3-(2H-tetrazol-5-yl)phenyl)sulfonamido) propanoic acid], which Efflux ratio is on record?
Answer: 0.50

Question: How did the Efflux ratio turn out when NCC(CN)NS(=O)(=O)c1ccc(-c2cccc(C3N=NC(N)=N3)c2)c(-c2nn[nH]n2)c1S(N)(=O)=O (stereo not shown) [Example 229, 3′-(5-amino-3H-1,2,4-triazol-3-yl)-N4-(1,3-diaminopropan-2-yl)-2-(2H-tetrazol-5-yl)-[1,1′-biphenyl]-3,4-disulfonamide] was run?
Answer: 0.50

Question: Which Efflux ratio does the source give for CC(N)CNS(=O)(=O)c1ccc(-c2cccc3sc(N)nc23)c(-c2nnn[nH]2)c1S(N)(=O)=O.O=C(O)C(F)(F)F (stereo not drawn) [Example 109, l-(4-(2-aminobenzo[d]thiazol-4-yl)-2-sulfamoyl-3-(1H-tetrazol-5-yl)phenylsulfonamido) propan-2-aminium 2,2,2-trifluoroacetate] here?
Answer: 0.50

Question: Nc1nc2c(-c3ccc(S(=O)(=O)N[C@H]4CN[C@@H](C(=O)O)C4)c(S(N)(=O)=O)c3-c3nnn[nH]3)cccc2s1 [Example 82, (4R)-4-({[4-(2-amino-1,3-benzothiazol-4-yl)-2-sulfamoyl-3-(1H-tetrazol-5-yl)phenyl]sulfonyl}amino)-D-proline] was tested. Which Efflux ratio did it give?
Answer: 0.50

Question: For Nc1nc2c(-c3ccc(S(=O)(=O)N[C@@H]4CN[C@@H](CO)C4)c(S(N)(=O)=O)c3-c3nnn[nH]3)cccc2[nH]1 [Example 174, 4-(2-amino-1H-benzo[d]imidazol-4-yl)-N^1-((3S,5R)-5-(hydroxymethyl)pyrrolidin-3-yl)-3-(1H-tetrazol-5-yl)benzene-1,2-disulfonamide], which Efflux ratio is on record?
Answer: 1.00

Question: C[C@H](N)CNS(=O)(=O)c1ccc(-c2cccc3sc(N)nc23)c(-c2nnn[nH]2)c1S(N)(=O)=O.O=CO [Example 127, (S)-4-(2-aminobenzo[d]thiazol-4-yl)-N1-(2-aminopropyl)-3-(1H-tetrazol-5-yl)benzene-1,2-disulfonamide, formate salt] was tested. Which Efflux ratio did it give?
Answer: 1.00

Question: Cc1ccc(-c2ccc(S(=O)(=O)N[C@@H]3CCNC3)c(S(N)(=O)=O)c2-c2nn[nH]n2)c2nc(N)[nH]c12 [Example 285, (R)-4-(2-amino-7-methyl-1H-benzo[d]imidazol-4-yl)-N1-(pyrrolidin-3-yl)-3-(2H-tetrazol-5-yl)benzene-1,2-disulfonamide] was tested. Which Efflux ratio did it give?
Answer: 1.00

Question: How did the Efflux ratio turn out when Cn1c(N)nc2c(-c3ccc(S(N)(=O)=O)c(S(N)(=O)=O)c3-c3nn[nH]n3)cccc21 [Example 5, 4-(2-amino-1-methyl-1H-benzo[d]imidazol-4-yl)-3-(2H-tetrazol-5-yl)benzene-1,2-disulfonamide] was run?
Answer: 2.00

Question: How did the Efflux ratio turn out when Nc1nc2c(-c3ccc(S(=O)(=O)N[C@H]4CN[C@H](CO)C4)c(S(N)(=O)=O)c3-c3nnn[nH]3)cccc2s1 [Example 78, 4-(2-amino-1,3-benzothiazol-4-yl)-N1-[(3R,5S)-5-(hydroxymethyl)pyrrolidin-3-yl]-3-(1H-tetrazol-5-yl)benzene-1,2-disulfonamide] was run?
Answer: 0.50

Question: For CN1CC[C@@H](NS(=O)(=O)c2ccc(-c3cccc4[nH]c(N)nc34)c(-c3nn[nH]n3)c2S(N)(=O)=O)C1 [Example 232, (R)-4-(2-amino-1H-benzo[d]imidazol-4-yl)-N^1-(1-methylpyrrolidin-3-yl)-3-(2H-tetrazol-5-yl)benzene-1,2-disulfonamide], which Efflux ratio is on record?
Answer: 2.00

Question: For Nc1nc2c(-c3ccc(S(=O)(=O)NC4CC5CNC4C5)c(S(N)(=O)=O)c3-c3nnn[nH]3)cccc2s1 (stereo not shown) [Example 89, 4-(2-aminobenzo[d]thiazol-4-yl)-N^1-(2-azabicyclo[2.2.1]heptan-6-yl)-3-(1H-tetrazol-5-yl)benzene-1,2-disulfonamide], which Efflux ratio is on record?
Answer: 1.00

Question: NS(=O)(=O)c1c(S(=O)(=O)N[C@@H]2CCNC2)ccc(-c2cccc3[nH]nnc23)c1-c1nn[nH]n1 [Example 235, (R)-4-(1H-benzo[d][1,2,3]triazol-4-yl)-N^1-(pyrrolidin-3-yl)-3-(2H-tetrazol-5-yl)benzene-1,2-disulfonamide] was tested. Which Efflux ratio did it give?
Answer: 0.50

Question: NCCNS(=O)(=O)c1ccc(-c2cccc3oc(N)nc23)c(-c2nn[nH]n2)c1S(N)(=O)=O [Example 11, 4-(2-aminobenzo[d]oxazol-4-yl)-N^1-(2-aminoethyl)-3-(2H-tetrazol-5-yl)benzene-1,2-disulfonamide] was tested. Which Efflux ratio did it give?
Answer: 1.00

Question: Which Efflux ratio does the source give for CN(C)CCCN(C)S(=O)(=O)c1ccc(-c2cccc3sc(N)nc23)c(-c2nnn[nH]2)c1S(N)(=O)=O [Example 52, 4-(2-amino-1,3-benzothiazol-4-yl)-N1-[3-(dimethylamino)propyl]-N~1~-methyl-3-(1H-tetrazol-5-yl)benzene-1,2-disulfonamide] here?
Answer: 2.00

Question: CN1CCCC(NS(=O)(=O)c2ccc(-c3cccc4sc(N)nc34)c(-c3nnn[nH]3)c2S(N)(=O)=O)C1 (stereo not shown) [Example 18, 4-(2-amino-1,3-benzothiazol-4-yl)-N1-(1-methylpiperidin-3-yl)-3-(1H-tetrazol-5-yl)benzene-1,2-disulfonamide] was tested. Which Efflux ratio did it give?
Answer: 1.00

Question: Which Efflux ratio does the source give for Nc1nc2c(-c3ccc(S(=O)(=O)N4CCC(N)CC4)c(S(N)(=O)=O)c3-c3nn[nH]n3)cccc2s1 [Example 148, 3-(2-aminobenzo[d]thiazol-4-yl)-6-((4-aminopiperidin-1-yl)sulfonyl)-2-(2H-tetrazol-5-yl)benzenesulfonamide] here?
Answer: 2.00

Question: With Nc1nc2c(-c3ccc(S(=O)(=O)N4CCC(N)(CO)C4)c(S(N)(=O)=O)c3-c3nnn[nH]3)cccc2s1 (stereo not shown) [Example 55, 3-(2-amino-1,3-benzothiazol-4-yl)-6-{[3-amino-3-(hydroxymethyl)pyrrolidin-1-yl]sulfonyl}-2-(1H-tetrazol-5-yl)benzenesulfonamide] as the compound, how does the Efflux ratio read?
Answer: 1.00

Question: For CN(C)C(=O)CNS(=O)(=O)c1ccc(-c2cccc3sc(N)nc23)c(-c2nnn[nH]2)c1S(N)(=O)=O [Example 36, N^2-{[4-(2-amino-1,3-benzothiazol-4-yl)-2-sulfamoyl-3-(1H-tetrazol-5-yl)phenyl]sulfonyl}-N,N-dimethylglycinamide], which Efflux ratio is on record?
Answer: 1.00

Question: For Cn1c(N)nc2c(-c3ccc(S(=O)(=O)N[C@@H]4CCNC4)c(S(N)(=O)=O)c3-c3nn[nH]n3)cccc21 [Example 164, 4-(2-amino-1-methyl-1H-benzo[d]imidazol-4-yl)-N^1-((R)-pyrrolidin-3-yl)-3-(2H-tetrazol-5-yl)benzene-1,2-disulfonamide], which Efflux ratio is on record?
Answer: 1.00

Question: Nc1nc2cccc(-c3ccc(S(N)(=O)=O)c(S(N)(=O)=O)c3-c3nn[nH]n3)c2[nH]1 [Example 1, 4-(2-amino-3H-benzo[d]imidazol-4-yl)-3-(2H-tetrazol-5-yl)benzene-1,2-disulfonamide] was tested. Which Efflux ratio did it give?
Answer: 0.65
